Our source for the MIC values is US20170305943A1, “COMPOUNDS FOR THE TREATMENT OF BACTERIAL INFECTIONS” (priority 2014, published 2017).

≈ marks a conversion by molar mass, not a printed value.

This experiment has as its system Clostridium difficile (Isolate ID ATCC 9689). Briefly: Bacterial Assay: Determination of Antibacterial Activity (MIC, broth microdilution or agar dilution). The class given is cell-based. To be noted: Clostridioides difficile, ATCC9689, 48 h, read-out: C. difficile MIC Activity Range. Put shortly:
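MICs were set by CLSI broth microdilution or agar dilution for anaerobes, read visually after 48 hours at 37° C. under anaerobic gas packs. Medium was reinforced clostridial medium with 0.1% defibrinated horse blood; values are binned as A ≦1.01, B >1.0-4.0, C >4.0-16 μg/mL.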
As for `CCOC(=O)c1ccc(OCCCCOc2ccc(F)c(C(N)=O)c2F)cc1` [Compound 138, ethyl 4-[4-(3-carbamoyl-2,4-difluorophenoxy)butoxy]benzoate], the MIC was under 1.01 µg/mL.
To `CCCc1oc(C(C)Oc2ccc(F)c(C(N)=O)c2F)nc1-c1ccc(OC(F)(F)F)cc1` (stereo not drawn) [Compound 28, 2,6-difluoro-3-(1-{5-propyl-4-[4-(trifluoromethoxy)phenyl]-1,3-oxazol-2-yl}ethoxy)benzamide] belongs 4 to 16 µg/mL (≈ 8.5 to 34 µM); to `NC(=O)c1c(F)ccc(OCCCCOc2ccc(OC(F)F)cc2)c1F` [Compound 149], under 1.01 µg/mL; to `NC(=O)c1c(F)ccc(OC(COC(=O)NCc2ccccn2)c2nc(-c3ccc(C(F)(F)F)cc3)c(Br)o2)c1F` (stereo not drawn) [Compound 61, 2-{5-bromo-4-[4-(trifluoromethyl)phenyl]-1,3-oxazol-2-yl}-2-(3-carbamoyl-2,4-difluorophenoxy)ethyl (pyridin-2-ylmethyl)carbamate], 1 to 4 µg/mL (≈ 1.56 to 6.24 µM).
Regarding `N#Cc1cccc(OCCCCOc2ccc(F)c(C(N)=O)c2F)c1` [Compound 173, 3-[4-(3-cyanophenoxy)butoxy]-2,6-difluorobenzamide], the MIC lay in the range of 4 to 16 µg/mL (≈ 11.5 to 46.2 µM).
To `NC(=O)c1c(F)ccc(OCCCCOc2ccc(C(F)(F)F)nn2)c1F` [Compound 158, 2,6-difluoro-3-(4-{[6-(trifluoromethyl)pyridazin-3-yl]oxy}butoxy)benzamide] belongs 4 to 16 µg/mL (≈ 10.2 to 40.9 µM).
Consider `Cc1nn(-c2ccc(Cl)cc2)nc1COc1ccc(F)c(C(N)=O)c1F` [Compound 200, 3-{[2-(4-chlorophenyl)-5-methyl-2H-1,2,3-triazol-4-yl]methoxy}-2,6-difluorobenzamide], for which the MIC is 1 to 4 µg/mL (≈ 2.64 to 10.6 µM).
Take `NC(=O)c1c(F)ccc(OC(CNC(=O)c2ccccn2)c2nc(-c3ccc(C(F)(F)F)cc3)c(Br)o2)c1F` (racemic) [Compound 98, N-[2-{5-bromo-4-[4-(trifluoromethyl)phenyl]-1,3-oxazol-2-yl}-2-(3-carbamoyl-2,4-difluorophenoxy)ethyl]pyridine-2-carboxamide]: the MIC fell in the range of 1 to 4 µg/mL (≈ 1.64 to 6.54 µM).
In the case of `CC(Oc1ccc(F)c(C(N)=O)c1F)c1nc(-c2ccc(Cl)cc2)ns1` (stereo not drawn) [Compound 30, 3-{1-[3-(4-chlorophenyl)-1,2,4-thiadiazol-5-yl]ethoxy}-2,6-difluorobenzamide], the MIC is under 1.01 µg/mL.
With `NC(=O)c1c(F)ccc(OC(COC(=O)NCCO)c2nc(-c3ccc(C(F)(F)F)cc3)c(Br)o2)c1F` (stereo not drawn) [Compound 59, 2-{5-bromo-4-[4-(trifluoromethyl)phenyl]-1,3-oxazol-2-yl}-2-(3-carbamoyl-2,4-difluorophenoxy)ethyl (2-hydroxyethyl)carbamate], the MIC is under 1.01 µg/mL.
Take `NC(=O)c1c(F)ccc(OCCCCOc2ccc(Cl)c(C(F)(F)F)c2)c1F` [Compound 169, 3-{4-[4-chloro-3-(trifluoromethyl)phenoxy]butoxy}-2,6-difluorobenzamide]: the MIC is under 1.01 µg/mL.
`NC(=O)c1c(F)ccc(OC(COC(=O)Nc2cccnc2)c2nc(-c3ccc(C(F)(F)F)cc3)c(Br)o2)c1F` (racemic) [Compound 64, 2-{5-bromo-4-[4-(trifluoromethyl)phenyl]-1,3-oxazol-2-yl}-2-(3-carbamoyl-2,4-difluorophenoxy)ethyl pyridin-3-ylcarbamate]: the MIC is under 1.01 µg/mL.
Next, `NC(=O)c1c(F)ccc(OCCCCOc2cccc(Br)c2)c1F` [Compound 172, 3-[4-(3-bromophenoxy)butoxy]-2,6-difluorobenzamide]: 1 to 4 µg/mL (≈ 2.5 to 9.99 µM); `Cc1cc(CNC(=O)OCC(Oc2ccc(F)c(C(N)=O)c2F)c2nc(-c3ccc(C(F)(F)F)cc3)c(Br)o2)nn1C` (stereo not drawn) [Compound 88, 2-{5-bromo-4-[4-(trifluoromethyl)phenyl]-1,3-oxazol-2-yl}-2-(3-carbamoyl-2,4-difluorophenoxy)ethyl [(1,5-dimethyl-1H-pyrazol-3-yl)methyl]carbamate]: 1 to 4 µg/mL (≈ 1.52 to 6.08 µM); `CCNC(=O)NCC(Oc1ccc(F)c(C(N)=O)c1F)c1nc(-c2ccc(C(F)(F)F)cc2)c(Br)o1` (racemic) [Compound 95, 3-(1-{5-bromo-4-[4-(trifluoromethyl)phenyl]-1,3-oxazol-2-yl}-2-[(ethylcarbamoyl)amino]ethoxy)-2,6-difluorobenzamide]: under 1.01 µg/mL.
To `NC(=O)c1c(F)ccc(OCCCc2nc(-c3ccc(OC(F)(F)F)cc3)cs2)c1F` [Compound 115, 2,6-difluoro-3-(3-{4-[4-(trifluoromethoxy)phenyl]-1,3-thiazol-2-yl}propoxy)benzamide] belongs 1 to 4 µg/mL (≈ 2.18 to 8.73 µM).
For `NC(=O)c1c(F)ccc(OC(COP(=O)(O)O)c2nc(-c3ccc(C(F)(F)F)cc3)c(Br)o2)c1F` (stereo not drawn) [Compound 43, 2-{5-bromo-4-[4-(trifluoromethyl)phenyl]-1,3-oxazol-2-yl}-2-(3-carbamoyl-2,4-difluorophenoxy)ethyl dihydrogen phosphate], the MIC was in the range of 1 to 4 µg/mL.
In the case of `CCCCCCOCCOc1ccc(F)c(C(N)=O)c1F` [Compound 4, 2,6-difluoro-3[2-(hexyloxy)ethoxy]benzamide], the MIC fell in the range of 1 to 4 µg/mL (≈ 3.32 to 13.3 µM).
With `NC(=O)c1c(F)ccc(OC(CNC(=O)c2ccccc2)c2nc(-c3ccc(C(F)(F)F)cc3)c(Br)o2)c1F` (racemic) [Compound 96, 3-[2-(benzoylamino)-1-{5-bromo-4-[4-(trifluoromethyl)phenyl]-1,3-oxazol-2-yl}ethoxy]-2,6-difluorobenzamide], the MIC was under 1.01 µg/mL.
`NC(=O)c1c(F)ccc(OCCCCOc2ccc(F)cc2)c1F` [Compound 168, 2,6-difluoro-3-[4-(4-fluorophenoxy)butoxy] benzamide]: the MIC was in the range of 1 to 4 µg/mL (≈ 2.95 to 11.8 µM).
Turning to `Cc1nnc(CNC(=O)OCC(Oc2ccc(F)c(C(N)=O)c2F)c2nc(-c3ccc(C(F)(F)F)cc3)c(Br)o2)o1` (stereo not drawn) [Compound 65, 2-{5-bromo-4-[4-(trifluoromethyl)phenyl]-1,3-oxazol-2-yl}-2-(3-carbamoyl-2,4-difluorophenoxy)ethyl [(5-methyl-1,3,4-oxadiazol-2-yl)methyl]carbamate], the MIC was 1 to 4 µg/mL (≈ 1.55 to 6.19 µM).
With `N#Cc1cc(Cl)ccc1-c1csc(COc2ccc(F)c(C(N)=O)c2F)n1` [Compound 206, 3-{[4-(4-chloro-2-cyanophenyl)-1,3-thiazol-2-yl]methoxy}-2,6-difluorobenzamide], the MIC was under 1.01 µg/mL.
On to `NC(=O)c1c(F)ccc(OCCCOc2ccc(Cl)cc2)c1F` [Compound 124, 3-[3-(4-chlorophenoxy)propoxy]-2,6-difluorobenzamide], for which the MIC lay in the range of 1 to 4 µg/mL (≈ 2.93 to 11.7 µM).
Regarding `Cc1cccc(CNC(=O)OCC(Oc2ccc(F)c(C(N)=O)c2F)c2nc(-c3ccc(C(F)(F)F)cc3)c(Br)o2)n1` (stereo not drawn) [Compound 77, 2-{5-bromo-4-[4-(trifluoromethyl)phenyl]-1,3-oxazol-2-yl}-2-(3-carbamoyl-2,4-difluorophenoxy)ethyl [(6-methylpyridin-2-yl)methyl]carbamate], the minimal inhibitory concentration (MIC) was in the range of 1 to 4 µg/mL (≈ 1.53 to 6.1 µM).
To `NC(=O)c1c(F)ccc(OC(COC(=O)Nc2ccncc2)c2nc(-c3ccc(C(F)(F)F)cc3)c(Br)o2)c1F` (stereo not drawn) [Compound 67, 2-{5-bromo-4-[4-(trifluoromethyl)phenyl]-1,3-oxazol-2-yl}-2-(3-carbamoyl-2,4-difluorophenoxy)ethyl pyridin-4-ylcarbamate] belongs 1 to 4 µg/mL (≈ 1.59 to 6.38 µM).
Next, `Cc1c(CNC(=O)OCC(Oc2ccc(F)c(C(N)=O)c2F)c2nc(-c3ccc(C(F)(F)F)cc3)c(Br)o2)cnn1C` (stereo not drawn) [Compound 82, 2-{5-bromo-4-[4-(trifluoromethyl)phenyl]-1,3-oxazol-2-yl}-2-(3-carbamoyl-2,4-difluorophenoxy)ethyl [(1,5-dimethyl-1H-pyrazol-4-yl)methyl]carbamate]: under 1.01 µg/mL.
As for `CNC(=O)CCC(Oc1ccc(F)c(C(N)=O)c1F)c1nc(-c2ccc(C(F)(F)F)cc2)c(Br)o1` (stereo not drawn) [Compound 48, 3-[1-{5-bromo-4-[4-(trifluoromethyl)phenyl]-1,3-oxazol-2-yl}-4-(methylamino)-4-oxobutoxy]-2,6-difluorobenzamide], the MIC is 1 to 4 µg/mL (≈ 1.78 to 7.11 µM).
Consider `NC(=O)c1c(F)ccc(OCCOCCOc2ccc(C(F)(F)F)cn2)c1F` [Compound 156, 2,6-difluoro-3-[2-(2-{[5-(trifluoromethyl)pyridin-2-yl]oxy}ethoxy)ethoxy]benzamide], for which the MIC lay in the range of 1 to 4 µg/mL (≈ 2.46 to 9.84 µM).
Consider `NC(=O)c1c(F)ccc(OCCOCCOc2ccc(C(F)(F)F)cc2)c1F` [Compound 146, 2,6-difluoro-3-(2-{2-[4-(trifluoromethyl)phenoxy]ethoxy}ethoxy) benzamide], for which the MIC was under 1.01 µg/mL.
To `CCCCCCCCCOc1ccc(F)c(C(=N)N)c1F` [Compound 107, 2,6-difluoro-3-(nonyloxy)benzenecarboximidamide] belongs 4 to 16 µg/mL (≈ 13.4 to 53.6 µM); to `CCCCCCCCCNc1ccc(F)c(C(N)=O)c1F` [Compound 123, 2,6-difluoro-3-(nonylamino)benzamide], 1 to 4 µg/mL (≈ 3.35 to 13.4 µM).
As to `CCOC(=O)CN(CCCCOc1ccc(OC(F)(F)F)cc1)c1ccc(F)c(C(N)=O)c1F` [Compound 186, ethyl N-(3-carbamoyl-2,4-difluorophenyl)-N-{4-[4-(trifluoromethoxy)phenoxy]butyl}glycinate], the MIC was 1 to 4 µg/mL (≈ 2.04 to 8.16 µM).
Next, `NC(=O)c1c(F)ccc(OCCc2nc(-c3ccc(S(F)(F)(F)(F)F)cc3)no2)c1F` [Compound 118, 2,6-difluoro-3-(2-{3-[4-(pentafluoro-lambda~6~- sulfanyl)phenyl]-1,2,4-oxadiazol-5-yl}ethoxy)benzamide]: under 1.01 µg/mL; `NC(=O)c1c(F)ccc(OCc2cc(-c3ccc(Cl)cc3)cs2)c1F` [Compound 188, 3-{[4-(4-chlorophenyl)thiophen-2-yl]methoxy}-2,6-difluorobenzamide]: under 1.01 µg/mL; `NC(=O)c1c(F)ccc(OCc2nc(-c3ccc(Cl)c(O)c3)cs2)c1F` [Compound 196, 3-{[4-(4-chloro-3-hydroxyphenyl)-1,3-thiazol-2-yl]methoxy}-2,6-difluorobenzamide]: 1 to 4 µg/mL (≈ 2.52 to 10.1 µM).
For `N/C(=N\O)c1c(F)ccc(OCc2nc(-c3ccc(OC(F)(F)F)cc3)ns2)c1F` [Compound 119, 2,6-difluoro-N′-hydroxy-3-({3-[4-(trifluoromethoxy)phenyl]-1,2,4-thiadiazol-5-yl}methoxy)benzenecarboximidamide], the MIC lay in the range of 1 to 4 µg/mL (≈ 2.24 to 8.96 µM).
